Experiments:
Format in all cases: in vivo
kochia (Kochia scoparia) = experiment: Test C greenhouse herbicide test, postemergence; conditions: Postemergence
How it was run: (§1)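 Greenhouse postemergence spray on plants 2–18 cm tall; response judged visually after 13–15 d relative to untreated controls using a 0 (none) to 100 (full control) scale.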

[1] = test system: oat, wild (wild oat, Avena fatua); experiment: Test C greenhouse herbicide test, postemergence; conditions: Postemergence
How it was run: as §1

[2] = test system: barnyardgrass (Echinochloa crus-galli); experiment: Test C greenhouse herbicide test, pre- and postemergence
How it was run: (§2)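 Two application timings: at sowing into a soil/sand blend, and on 2–18 cm seedlings in peat-vermiculite potting mix. A non-phytotoxic, surfactant-containing solvent carried the compounds. Plants were compared with controls and rated visually on 0–100 after 13–15 d.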

corn (Zea mays) = experiment: as above
How it was run: as §2

[3] = test system: crabgrass, large (large crabgrass, Digitaria sanguinalis); experiment: as above
How it was run: as §2

[4] = test system: oilseed rape (Brassica napus); experiment: as above
How it was run: as §2

[5] = test system: blackgrass (Alopecurus myosuroides); experiment: as above
How it was run: as §2

[6] = test system: lambsquarters (Chenopodium album); experiment: as above
How it was run: as §2

[7] = test system: pigweed (Amaranthus retroflexus); experiment: as above
How it was run: as §2

[8] = test system: morningglory (Ipomoea coccinea); experiment: as above
How it was run: as §2

[9] = test system: nutsedge, yellow (yellow nutsedge, Cyperus esculentus); experiment: as above
How it was run: as §2

[10] = test system: wheat (winter wheat, Triticum aestivum); experiment: as above
How it was run: as §2

[11] = test system: velvetleaf (Abutilon theophrasti); experiment: as above
How it was run: as §2

[12] = test system: waterhemp (common waterhemp, Amaranthus rudis); experiment: as above
How it was run: as §2

[13] = test system: foxtail, giant (giant foxtail, Setaria faberii); experiment: as above
How it was run: as §2

[14] = test system: johnsongrass (Sorghum halepense); experiment: as above
How it was run: as §2

[15] = 31 g ai/ha, scale 0 to 100 (0 no effect, 100 complete control)
[16] = 125 g ai/ha, scale 0 to 100, 0 is no effect, 100 is complete control
[17] = 250 g ai/ha, scale 0 to 100, 0 no effect, 100 complete control, 13 to 15 d
[18] = Postemergence, 31 g ai/ha, scale 0 to 100 (0 no effect, 100 complete control)
[19] = Postemergence, 125 g ai/ha, scale 0 to 100, 0 is no effect, 100 is complete control
[20] = Postemergence, 250 g ai/ha, scale 0 to 100, 0 no effect, 100 complete control, 13 to 15 d
[21] = Preemergence, 31 g ai/ha, scale 0 to 100, 0 is no effect, 100 is complete control
[22] = Preemergence, 62 g ai/ha, scale 0 to 100, 0 is no effect, 100 is complete control
[23] = Preemergence, 125 g ai/ha, scale 0 to 100, 0 is no effect, 100 is complete control
[24] = Preemergence, 250 g ai/ha, scale 0 to 100 (0 no effect, 100 complete control)
[25] = postemergence, 62 g ai/ha, scale 0 to 100, 0 no effect, 100 complete control

Cc1ccc2ccccc2c1-c1c(O)c(Cl)nn(C)c1=O [Compound 125]
80: Plant response rating, Barnyardgrass [2, 19] | Plant response rating, Blackgrass [5, 20]
60: Plant response rating, Crabgrass, Large [3, 20] | Plant response rating, Blackgrass [5, 19] | Plant response rating, Johnsongrass [14, 23]
5: Plant response rating, Corn (corn (Zea mays); [18]) | Plant response rating, Corn (corn (Zea mays); [19]) | Plant response rating, Corn (corn (Zea mays); [20]) | Plant response rating, Oilseed Rape [4, 19] | Plant response rating, Johnsongrass [14, 18]
30: Plant response rating, Wheat [10, 19]
75: Plant response rating, Crabgrass, Large [3, 23]
85: Plant response rating, Kochia (kochia (Kochia scoparia); [15]) | Plant response rating, Oat, Wild [1, 15] | Plant response rating, Oilseed Rape [4, 21] | Plant response rating, Oilseed Rape [4, 23] | Plant response rating, Nutsedge, Yellow [9, 19] | Plant response rating, Velvetleaf [11, 18] | Plant response rating, Waterhemp [12, 18]
95: Plant response rating, Oat, Wild [1, 16] | Plant response rating, Oat, Wild [1, 17] | Plant response rating, Pigweed [7, 18] | Plant response rating, Morningglory [8, 18] | Plant response rating, Morningglory [8, 22] | Plant response rating, Morningglory [8, 23] | Plant response rating, Nutsedge, Yellow [9, 22] | Plant response rating, Nutsedge, Yellow [9, 23] | Plant response rating, Velvetleaf [11, 19] | Plant response rating, Velvetleaf [11, 21] | Plant response rating, Foxtail, Giant [13, 19] | Plant response rating, Foxtail, Giant [13, 21]
70: Plant response rating, Barnyardgrass [2, 20] | Plant response rating, Barnyardgrass [2, 22] | Plant response rating, Foxtail, Giant [13, 18] | Johnsongrass plant response rating [14, 24]
55: Plant response rating, Barnyardgrass [2, 21] | Corn plant response rating (corn (Zea mays); [24]) | Plant response rating, Blackgrass [5, 22] | Plant response rating, Blackgrass [5, 23] | Plant response rating, Johnsongrass [14, 22]
10: Plant response rating, Oilseed Rape [4, 20]
25: Plant response rating, Crabgrass, Large [3, 18]
0: Plant response rating, Corn (corn (Zea mays); [21]) | Plant response rating, Corn (corn (Zea mays); [22]) | Corn plant response rating (corn (Zea mays); [25]) | Plant response rating, Oilseed Rape [4, 18] | Plant response rating, Oilseed Rape [4, 22] | Plant response rating, Wheat [10, 18]
45: Plant response rating, Crabgrass, Large [3, 22] | Blackgrass plant response rating [5, 25] | Plant response rating, Wheat [10, 22]
98: Barnyardgrass plant response rating [2, 24] | Crabgrass, Large plant response rating [3, 24] | Plant response rating, Lambsquarters [6, 19] | Plant response rating, Pigweed [7, 19] | Plant response rating, Pigweed [7, 20] | Morningglory plant response rating [8, 24] | Plant response rating, Velvetleaf [11, 20] | Plant response rating, Waterhemp [12, 19] | Plant response rating, Waterhemp [12, 21] | Plant response rating, Foxtail, Giant [13, 20] | Plant response rating, Foxtail, Giant [13, 23]
20: Plant response rating, Corn (corn (Zea mays); [23]) | Plant response rating, Blackgrass [5, 18] | Plant response rating, Johnsongrass [14, 19] | Plant response rating, Johnsongrass [14, 20]
100: Oilseed Rape plant response rating [4, 24] | Plant response rating, Lambsquarters [6, 20] | Plant response rating, Lambsquarters [6, 22] | Plant response rating, Lambsquarters [6, 23] | Lambsquarters plant response rating [6, 24] | Plant response rating, Pigweed [7, 21] | Plant response rating, Pigweed [7, 22] | Plant response rating, Pigweed [7, 23] | Pigweed plant response rating [7, 24] | Plant response rating, Morningglory [8, 19] | Plant response rating, Morningglory [8, 20] | Plant response rating, Velvetleaf [11, 22] | Plant response rating, Velvetleaf [11, 23] | Velvetleaf plant response rating [11, 24] | Plant response rating, Waterhemp [12, 20] | Plant response rating, Waterhemp [12, 22] | Plant response rating, Waterhemp [12, 23] | Waterhemp plant response rating [12, 24] | Plant response rating, Foxtail, Giant [13, 22] | Foxtail, Giant plant response rating [13, 24]
65: Plant response rating, Nutsedge, Yellow [9, 21]
35: Plant response rating, Barnyardgrass [2, 18] | Crabgrass, Large plant response rating [3, 25] | Plant response rating, Nutsedge, Yellow [9, 18] | Plant response rating, Wheat [10, 20]
90: Plant response rating, Kochia (kochia (Kochia scoparia); [16]) | Plant response rating, Kochia (kochia (Kochia scoparia); [17]) | Plant response rating, Barnyardgrass [2, 23] | Blackgrass plant response rating [5, 24] | Plant response rating, Lambsquarters [6, 18] | Plant response rating, Lambsquarters [6, 21] | Plant response rating, Morningglory [8, 21] | Plant response rating, Nutsedge, Yellow [9, 20] | Nutsedge, Yellow plant response rating [9, 24] | Plant response rating, Wheat [10, 23] | Wheat plant response rating [10, 24]
40: Barnyardgrass plant response rating [2, 25] | Plant response rating, Crabgrass, Large [3, 19] | Plant response rating, Crabgrass, Large [3, 21] | Plant response rating, Wheat [10, 21] | Plant response rating, Johnsongrass [14, 21]
50: Plant response rating, Blackgrass [5, 21]

Source: patent US10597388B2, “Pyridazinone herbicides” (FMC CORPORATION, priority 2014, dated 2020)
